According to US8685966B2, “GRP94 inhibitors” (University of Kansas, priority 2011, dated 2014):
Entries after “also recorded” stand apart in the source; their conditions may differ. Read-outs that look alike come from different tables or passages of the source.

Key:
[1] = molecular target: yHsp82 (yeast homolog of Hsp90β) (Saccharomyces cerevisiae, UniProt P02829); assay: Binding affinity by fluorescent quenching, yHsp82; conditions: read-out: Kd value for yHsp82 (yeast homolog of Hsp90β), FIG. 1B
[2] = molecular target: Grp94 (Canis lupus familiaris, UniProt P41148); assay: Binding affinity by fluorescent quenching, Grp94
[3] = tested on: MCF7 (ER+) breast cancer cells; assay: Anti-proliferative activity, MCF7; assay type: cell-based, human; conditions: said to be mimicked by the client degradation value; read-out: observed IC50 in MCF7
Procedure: (§1) As previously mentioned, it has been shown that Grp94 is not essential for tissue culture cell viability.^28 In contrast, loss of functional Hsp90α or Hsp90β results in cell death. Therefore, we investigated the anti-proliferative effects of compounds 1-5 against two breast cancer cells, MCF7 (ER+) and SKBR3 (Her2 overexpressing, ER—), and against the non-transformed HEK293 cells. […] To support these findings, western blot analyses of Hsp90α/β client proteins were performed from HEK293 cell lysates.

[4] = tested on: SKBR3 (Her2 overexpressing, ER—) breast cancer cells; assay: Anti-proliferative activity, SKBR3; assay type: cell-based, human; conditions: said to be mimicked by the client degradation value; read-out: observed IC50 in SkBR3
Procedure: as §1

[5] = molecular target: T1, Grp94 (Homo sapiens, UniProt P14625); assay: Toll trafficking assay in Toll-transfected HEK293 cells; assay type: cell-based; conditions: Toll presentation inhibition versus Western blot of Hsp90-dependent client proteins
T1 construct: endogenous in cells; host or cells: HEK293 (transfected only with pcDNA6B-Toll-Flag, the read-out client)

[6] = tested on: cytosolic Hsp90 (Hsp90α and Hsp90β); assay: Western blot of Hsp90α/β client proteins (Raf, Akt) in HEK293 cell lysates; assay type: cell-based, human; conditions: for concentration at which Hsp90α/β client proteins (Raf, Akt) are degraded/affected: HEK293, Western blot
Procedure: As previously mentioned, it has been shown that Grp94 is not essential for tissue culture cell viability.^28 In contrast, loss of functional Hsp90α or Hsp90β results in cell death. […]. […] To support these findings, western blot analyses of Hsp90α/β client proteins were performed from HEK293 cell lysates. […].
Briefly, HEK293 cells were plated in 6-well plates and treated with various concentrations of drug, GDA in DMSO (1% DMSO final concentration), or vehicle (DMSO) for 24 h. Cells were harvested in cold PBS and lysed in mammalian protein extraction reagent (MPER, Pierce) and protease inhibitors (Roche) on ice for 1 h. Lysates were clarified at 14,000 g for 10 min at 4° C. Protein concentrations were determined with the Pierce BCA assay kit per the manufacturer's instructions. Equal amounts of protein (10 μg) were electrophoresed under reducing conditions, transferred to a PVDF membrane, and immunoblotted with the corresponding specific antibodies. Membranes were incubated with an appropriate horseradish peroxidase-labeled secondary anti-body, developed with chemiluminescent substrate, and visualized.

[7] = tested on: C2C12 cells; assay: C2C12 cell viability (XTT assay); conditions: same treatment as IGF-II assay
Procedure: The viability of cells treated as in A was measured at each of the indicated concentrations by the XTT assay.
C2C12 cells (ATCC, Rockville, Md.) were induced to differentiate either by complete withdrawal of serum or by shifting to medium supplemented with 2% house serum. […] Cell growth was measured with the XTT formazan colorimetric assay (Roche), cells were grown in 3% serum, to limit the background of the assay.

[8] = tested on: IGF-II secretion; assay: IGF-II secretion by serum-starved C2C12 cells (ELISA); assay type: cell-based, mouse; conditions: 10 μM
Procedure: IGF-II is a second well-defined Grp94-dependent client protein and active Grp94 is required for the secretion of IGF-11 (Ostrovsky et al., 2009).
For IGF-II ELISA, plates were coated with anti-IGF-II (MAb 792, R&D Systems) and incubated with the test cell media. The bound IGF-II was detected with a biotinylated anti-IGF-II antibody (BAF792, R&D Systems) and developed with streptavidin-HRP (R&D Systems) according to the manufacturer's recommended procedure. Optical density units were converted to concentrations of the growth factor with a standard curve generated with recombinant IGF-II (792-MG) (R&D Systems). Data were acquired in duplicate on a microtiter-plate reader (Dynatech Laboratories, Chantilly, Va.) at 450 nm.

[9] = tested on: cytosolic Hsp90; assay: Akt stability in the BiP induction experiment (immunoblot); assay type: cell-based; conditions: same concentrations as BiP induction
Procedure: NIH-3T3 cells were treated with 25 μM of 17-AAG (AAG), 10 μM of RDC or 0-50 μM of 2. After 18 hrs cells were harvested for SDS-PAGE and analyzed by immunoblotting. Grp94, BiP and PDIA6 were detected with the monoclonal anti-KDEL antibody, AKT by rabbit anti-serum. 14-3-3 served as loading control. Numbers below BiP, Grp94, and AKT bands are the relative expression levels, determined by densitometry.
Inhibition of Hsp90 is also known to induce expression of Hsp70 and this response is useful as a diagnostic tool (FIG. 11).^61-62 A parallel response exists when Grp94 expression is ablated by RNAi, or when its activity is inhibited by RDC or 17-AAG: a transcriptional response is initiated that leads to upregulation of expression of BiP, the ER member of the Hsp70 family (Eletto et al., submitted). We therefore assessed the ability of 2 to cause BiP up-regulation, in comparison to pan-Hsp90 inhibitors. […] However, at these concentrations, the compound also destabilized Akt, a hallmark of inhibition of cytosolic Hsp90 (FIG. 12).

[10] = tested on: BiP expression; assay: Induction of BiP expression (immunoblot); assay type: cell-based
[11] = tested on: Drosophila larvae (w1118); assay: Drosophila larval growth on supplemented fly food; assay type: in vivo
Source text: In the absence of zygotic expression of Gp93, however, larvae display a pronounced growth defect, commensurate with disrupted gut epithelial morphology, decreased gut nutrient uptake, and marked aberrations in copper cell structure and function. As a consequence, loss of Gp93 expression is larval lethal in Drosophila. […]. […] In parallel experiments, larval gut tissue was obtained from each of the feeding conditions and gut epithelial morphology evaluated by fluorescence microscopy. […] Pharmacokinetic studies of compound absorption and metabolism may provide addition insights into this partial phenotypic behavior.
Compound effects on Drosophila larval growth were examined as described in 26. […]

[12] = tested on: National Cancer Institute 60-cell panel (NCI-60); assay: NCI 60-cell panel cytotoxicity profile; assay type: cell-based
Source text: This should not dampen excitement for selective Grp94 inhibitors, as numerous studies have shown 3-dimensional tumor response to be drastically different from cell culture responses. Requisite studies are underway to understand the effect of Grp94 inhibition on 3-dimensional tumor models.

[13] = tested on: IGF-II secretion; conditions: serum-starved C2C12 myoblast cells; cited from earlier work
[14] = tested on: HeLa cells; assay: HeLa cell survival (XTT assay), GRP94-sufficient or -deficient cells; assay type: cell-based; conditions: Homo sapiens, 48 hrs, regardless of presence of GRP94, read-out: IC50 for HeLa cell viability
Procedure: GRP94 and BiP were detected by the anti-KDEL antibody. *, an unknown KDEL-containing band. […] Cell survival was measured by XTT assay (n=4).
Similar results were obtained with other cell lines (e.g. C2C12 in FIG. 6).

[15] = read-out: Kd value for Grp94, fluorescent quenching, FIG. 1B
[16] = read-out: kd for binding to the Hsp90 isoform GRP94

Grp94 (Canis lupus familiaris, UniProt P41148), sequence (P41148 22-804): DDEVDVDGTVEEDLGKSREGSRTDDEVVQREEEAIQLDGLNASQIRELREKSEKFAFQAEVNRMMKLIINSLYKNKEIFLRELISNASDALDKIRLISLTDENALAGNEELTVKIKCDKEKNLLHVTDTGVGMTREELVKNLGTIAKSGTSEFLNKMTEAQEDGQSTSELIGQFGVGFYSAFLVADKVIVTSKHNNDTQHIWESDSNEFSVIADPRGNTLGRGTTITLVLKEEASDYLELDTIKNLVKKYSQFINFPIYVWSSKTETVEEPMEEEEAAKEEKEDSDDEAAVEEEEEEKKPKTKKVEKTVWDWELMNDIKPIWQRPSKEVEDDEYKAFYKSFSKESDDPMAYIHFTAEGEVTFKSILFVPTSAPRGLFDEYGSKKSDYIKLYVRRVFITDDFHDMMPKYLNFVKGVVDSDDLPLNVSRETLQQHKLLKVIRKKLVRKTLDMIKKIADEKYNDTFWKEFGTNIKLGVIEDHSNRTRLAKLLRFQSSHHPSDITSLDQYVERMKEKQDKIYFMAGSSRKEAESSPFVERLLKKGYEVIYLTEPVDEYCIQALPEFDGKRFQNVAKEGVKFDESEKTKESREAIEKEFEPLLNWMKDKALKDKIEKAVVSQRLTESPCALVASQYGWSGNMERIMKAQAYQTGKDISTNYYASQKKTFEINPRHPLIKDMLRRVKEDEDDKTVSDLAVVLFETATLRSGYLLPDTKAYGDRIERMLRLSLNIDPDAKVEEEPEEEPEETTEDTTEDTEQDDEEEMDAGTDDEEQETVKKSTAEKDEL
yHsp82 (yeast homolog of Hsp90β), sequence (P02829 whole entry): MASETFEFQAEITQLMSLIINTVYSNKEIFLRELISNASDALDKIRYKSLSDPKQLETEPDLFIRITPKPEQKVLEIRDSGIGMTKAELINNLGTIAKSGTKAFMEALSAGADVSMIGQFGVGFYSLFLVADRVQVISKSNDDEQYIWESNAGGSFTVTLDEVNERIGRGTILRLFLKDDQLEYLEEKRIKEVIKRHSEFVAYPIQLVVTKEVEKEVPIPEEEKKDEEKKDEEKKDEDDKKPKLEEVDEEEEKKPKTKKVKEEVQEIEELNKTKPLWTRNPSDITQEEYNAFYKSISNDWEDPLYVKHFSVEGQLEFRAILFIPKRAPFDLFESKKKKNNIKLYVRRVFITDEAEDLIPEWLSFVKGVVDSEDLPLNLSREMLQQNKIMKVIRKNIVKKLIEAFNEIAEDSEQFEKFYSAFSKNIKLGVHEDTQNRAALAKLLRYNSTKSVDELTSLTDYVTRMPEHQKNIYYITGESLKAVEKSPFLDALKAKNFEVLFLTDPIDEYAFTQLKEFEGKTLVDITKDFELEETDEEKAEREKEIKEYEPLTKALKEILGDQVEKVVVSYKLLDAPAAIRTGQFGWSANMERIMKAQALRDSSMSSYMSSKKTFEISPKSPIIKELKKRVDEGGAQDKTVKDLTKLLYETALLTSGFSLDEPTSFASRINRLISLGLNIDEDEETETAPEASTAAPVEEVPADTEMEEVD
T1 sequence (P14625 22-803): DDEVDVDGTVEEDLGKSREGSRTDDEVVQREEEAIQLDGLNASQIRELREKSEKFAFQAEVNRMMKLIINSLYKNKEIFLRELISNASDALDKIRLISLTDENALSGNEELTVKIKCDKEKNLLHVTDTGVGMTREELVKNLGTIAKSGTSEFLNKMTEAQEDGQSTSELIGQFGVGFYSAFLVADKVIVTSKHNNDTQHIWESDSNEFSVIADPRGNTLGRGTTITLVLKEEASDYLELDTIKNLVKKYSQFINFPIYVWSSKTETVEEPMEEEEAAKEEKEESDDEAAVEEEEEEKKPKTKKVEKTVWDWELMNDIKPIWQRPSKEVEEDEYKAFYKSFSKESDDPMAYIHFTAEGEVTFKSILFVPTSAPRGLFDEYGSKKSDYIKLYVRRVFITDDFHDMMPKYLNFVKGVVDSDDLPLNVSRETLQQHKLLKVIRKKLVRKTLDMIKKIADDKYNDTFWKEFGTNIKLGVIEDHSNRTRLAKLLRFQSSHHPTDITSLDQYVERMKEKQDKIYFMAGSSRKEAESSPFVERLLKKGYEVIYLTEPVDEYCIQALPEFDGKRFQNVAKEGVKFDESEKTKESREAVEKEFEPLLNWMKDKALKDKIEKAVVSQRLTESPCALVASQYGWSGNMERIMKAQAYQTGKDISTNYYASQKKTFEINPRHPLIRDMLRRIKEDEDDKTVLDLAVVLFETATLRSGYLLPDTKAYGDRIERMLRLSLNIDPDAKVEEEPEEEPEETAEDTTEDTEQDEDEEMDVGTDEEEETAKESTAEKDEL

COC(=O)c1c(O)cc(O)c(Cl)c1CCC(=O)NC1=CC(=O)C(OC)=CC1=O [Radamide]
Kd [1]: 870 ± 140 nM | fold higher binding affinity for full-length Grp94 than yHsp82 ([2]; full-length Grp94 vs yHsp82): approximately 2 fold | Kd [2, 15]: 520 ± 130 nM | Kd [2, 16]: 254 nM

cis-radamide [cRDA]
IC50 [3]: ~1000 nM | IC50 [4]: ~1000 nM | selectivity for GRP94 versus cytoplasmic Hsp90 α/β [5]: minimal selectivity | Kd [1]: 240 ± 120 nM | Kd [2, 15]: 110 ± 20 nM | Kd [2, 16]: 110 nM | concentration at which Hsp90α/β client proteins (Raf, Akt) are degraded/affected [6]: ~1 µM

COC(=O)c1c(O)cc(O)c(Cl)c1CCc1nccn1Cc1ccccc1 [Compound 2, Methyl 2-(2-(1-benzyl-1H-imidazol-2-yl)ethyl)-3-chloro-4,6-dihydroxybenzoate]
effect on cell viability [7]: little effect on cell viability | reduction of IGF-II secretion [8]: Approximately 60% | concentration at which Akt is destabilized [9]: above 200 μM | BiP up-regulation ([10]; 0-75 μM, C2C12 cells): did not lead to up-regulation of BiP | concentration inducing BiP expression ([10]; resembles RDC): above 200 μM | Drosophila larval growth ([11]; 250 μg/ml to 1 mg/ml in fly food, 96 hours): dramatic growth phenotype; also recorded: stunted the growth of Drosophila larvae in a dose-dependent manner | larval gut copper cell structure ([11]; fluorescence microscopy of gut tissue, data not shown): No grossly discernible effects on copper cell structure | cytotoxicity across all 60 transformed cell lines [12]: negligible cytotoxicity | HSP70 induction ([6]; HEK293, 100 μM): induction of HSP70 | concentration at which Hsp90α/β client proteins (Raf, Akt) are degraded/affected [6]: 100 µM

C=CCNC1=C2C[C@@H](C)C[C@H](OC)[C@H](O)[C@@H](C)/C=C(\C)[C@H](OC(N)=O)[C@@H](OC)/C=C\C=C(/C)C(=O)NC(=CC1=O)C2=O [Compound 17-AAG, 17-(allylamino)-17-demethoxygeldanamycin]
secretion of IGF-II (previously demonstrated) [13]: prevent the secretion of IGF-II | BiP up-regulation ([10]; 25 μM, data not shown): did cause BiP up-regulation

C[C@@H]1C[C@H]2O[C@@H]2/C=C\C=C\C(=O)Cc2c(Cl)c(O)cc(O)c2C(=O)O1 [RDC, radicicol]
IC50 [14]: 8000 nM | BiP up-regulation ([10]; 10 μM): did cause BiP up-regulation
